# According to patent US7282512B2, “Cycloalkyl ketoamides derivatives useful as cathepsin K inhibitors” (SmithKline Beecham Corporation, priority 2002, dated 2007):
# pKi: −log10 of the molar value.
# Molecular target: T1, human cathepsin K (Homo sapiens, UniProt P43235)
# T1 construct: The proform of cathepsin K was converted to mature cathepsin K by brief exposure to pH 4; made in house; host or cells: baculovirus; Trichoplusia ni High Five cells (virus raised in Sf-9)
# T1 sequence (P43235 115-329): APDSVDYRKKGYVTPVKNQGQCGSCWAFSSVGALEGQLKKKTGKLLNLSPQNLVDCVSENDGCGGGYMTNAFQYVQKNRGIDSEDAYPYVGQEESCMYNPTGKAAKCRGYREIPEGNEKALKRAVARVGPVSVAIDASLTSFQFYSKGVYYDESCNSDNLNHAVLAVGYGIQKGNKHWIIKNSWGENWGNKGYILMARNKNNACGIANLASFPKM
# Test: cathepsin K inhibition assay, fluorogenic substrate Cbz-Phe-Arg-AMC, progress curve method
# Format: biochemical
# Settings: Table 1; human recombinant enzyme, pH 5.5, 30° C., 10 μM substrate; read-out: hcatK Ki
# Experimental: All assays for cathepsin K were carried out with human and rat recombinant enzyme. Assays for cathepsins S & V were also carried out with human recombinant enzyme. Assays for human cathepsins B, H, and L were carried out with enzyme, purchased from Athens Research and Technology, Inc., prepared from human liver tissue. […] A stock substrate solution of Cbz-Phe-Arg-AMC was prepared at a concentration of 50 mM in dimethyl sulfoxide. This substrate was diluted into the assay for a final substrate concentration of 10 μM in the rat cathepsin K, human cathepsin K, and human cathepsin B assays; a final substrate concentration of 5 μM in the human cathepsin L assay; and a final substrate concentration of 2 μM in the human cathepsin V assay.
# All assays contained 10% dimethyl sulfoxide. […] All assays were conducted at 30° C. Product fluorescence (excitation at 360 nm; emission at 440 nm, (except cathepsin H which used excitation at 340 nm; emission at 420 nm)) was monitored with a PerSeptive Biosystems Cytofluor II fluorescence plate reader. Product progress curves were generated over 2.3 h monitoring the formation of 7-amino-4-methylcoumarin product (or β-naphthalamide for cathepsin H).
# Two liters of Spodoptera frugiperda (Sf-9) cells (ATCC) were grown in Grace's Supplemented medium (Life Technologies) supplemented with 2 g/L glucose, 10% fetal bovine serum (HyClone) and 0.1% pluronic F-68 (Life Technologies). […] The cells continued to grow for 72 h post-infection, before the virus was harvested by centrifugation at 1400×g for 30 min.
# One and one-half liters of Trichoplusia ni (T. ni) High Five (™) cells [JRH Biosciences, Woodland, Calif. […] Media were separated from cells at a rate of 1 L/min using the Centritech 100 (™) continuous-flow centrifuge (DuPont) operating at 200×g.
# Protein Purification: Media (human and rat) were filtered through a Whatman 3 filter, and then loaded onto a 25 mL Poros HS II (26 mm×47 mm) cation exchange column equilibrated in 25 mM sodium acetate at pH 5.5 (equilibration buffer). The column was washed until the absorbance reached the baseline value, and then the protein was eluted with a linear gradient from 0-2 M sodium chloride in the equilibration buffer. Column fractions were analyzed by SDS-PAGE, N-terminal sequencing, and mass spectrometry. Fractions containing the proform of cathepsin K were pooled and frozen at −80° C. The proform was concentrated in an Amicon Centriprep 10 and fractionated with a Superdex 75 column (26 mm×600 mm, Pharmacia) equilibrated in 400 mM sodium chloride, 25 mM sodium acetate at pH 5.5.
# Cathepsin K Activation: The proform of cathepsin K was converted to mature cathepsin K by brief exposure to pH 4 in the presence of 5 mM L-cysteine. Typically, 5 mM L-cysteine was added to 10 mL of approximately 1 mg/mL procathepsin K. One mL of this solution was diluted ten-fold into 450 mM sodium acetate at pH 4.0 containing 5 mM L-cysteine. This solution was reacted at 23° C. for 2 min before neutralization with 2 mL 1.8 M sodium acetate at pH 6.0. The neutralized sample was added to the remaining 9 mL of procathepsin K. The mixture was incubated at 4° C. for 2-3 days. The activated cathepsin K was chromatographed on a Poros HS II column as described above.
# Potential inhibitors were evaluated using the progress curve method. Assays were carried out in the presence of variable concentrations of test compound. Reactions were initiated by addition of buffered solutions of inhibitor and substrate to enzyme. Data analysis was conducted according to one of two procedures depending on the appearance of the progress curves in the presence of inhibitors. […] Ki values were calculated from IC50 values using equation 2 assuming a competitive model.
row,Structure (SMILES),pKi
1,"CCCC[C@H](NC(=O)OCC1(COc2ccnc(N3CCN(c4ccccc4)CC3)n2)CCC1)C(=O)C(=O)N[C@H](C)c1ccccc1 [Example 27, [1-({[2-(4-phenyl-1-piperazinyl)-4-pyrimidinyl]oxy}methyl)cyclobutyl]methyl (1S)-1-(oxo{[(1R)-1-phenylethyl]amino}acetyl)pentylcarbamate]",7.00 to 8.00
2,"CCCC[C@H](NC(=O)OCC1(COc2ccnc(Cl)n2)CCC1)C(=O)C(=O)N[C@H](C)c1ccccc1 [Example 20, (1-{[(2-chloro-4-pyrimidinyl)oxy]methyl}cyclobutyl)methyl(1S)-1-(oxo{[(1R)-1-phenylethyl]amino}acetyl)pentylcarbamate]",6.00 to 7.00
3,"CCCC[C@H](NC(=O)OCC1(COc2ncccn2)CCC1)C(=O)C(=O)N[C@H](C)c1ccccc1 [Example 30, {1-[(2-pyrimidinyloxy)methyl]cyclobutyl}methyl (1S)-1-(oxo {[(1R)-1-phenylethyl]amino}acetyl)pentylcarbamate]",6.00 to 7.00
4,"CCCC[C@H](NC(=O)OCC1(Cc2nc(-c3ccccc3)cs2)CCC1)C(=O)C(=O)N[C@H](C)c1ccccc1 [Example 18, {1-[(4-phenyl-1,3-thiazol-2-yl)methyl]cyclobutyl}methyl(1S)-1-(oxo{[(1R)-1-phenylethyl]amino}acetyl)pentylcarbamate]",8.00 to 9.00
5,"CCCC[C@H](NC(=O)OCC1(CCSc2nccn2C)CCC1)C(=O)C(=O)N[C@H](C)c1ccccc1 [Example 36, (1-{2-[(1-methyl-1H-imidazol-2-yl)sulfanyl]ethyl}cyclobutyl)methyl (1S)-1-(oxo{[(1R)-1-phenylethyl]amino}acetyl)pentylcarbamate]",< 6.00
6,"C[C@@H](NC(=O)C(=O)[C@H](CCCCNC(=O)N1CCOCC1)NC(=O)OCC1(Cc2cccnc2)CCC1)c1ccccc1 [Example 12, [1-(3-Pyridinylmethyl)cyclobutyl]methyl(1S)-5-[(4-morpholinylcarbonyl)amino]-1-(oxo{[(1R)-1-phenylethyl]amino}acetyl)pentylcarbamate]",6.00 to 7.00
7,"CCCC[C@H](NC(=O)OCC1(CSc2nc3ccccc3o2)CCC1)C(=O)C(=O)N[C@H](C)c1ccccc1 [Example 24, {1-[(1,3-benzoxazol-2-ylsulfanyl)methyl]cyclobutyl}methyl (1S)-1-(oxo{[(1R)-1-phenylethyl]amino}acetyl)pentylcarbamate]",7.00 to 8.00
8,"CCCC[C@H](NC(=O)OCC1(CCCOc2ccnc(Cl)n2)CCC1)C(=O)C(=O)N[C@H](C)c1ccccc1 [Example 38, (1-{3-[(2-chloro-4-pyrimidinyl)oxy]propyl}cyclobutyl)methyl (1S)-1-(oxo{[(1R)-1-phenylethyl]amino}acetyl)pentylcarbamate]",< 6.00
9,"CCCC[C@H](NC(=O)OC1(Cc2ccccc2)CCCCC1)C(=O)C(=O)N[C@H](C)c1ccccc1 [Example 4, 1-Benzylcyclohexyl(1S)-1-(oxo{[(1R)-1-phenylethyl]amino}acetyl)pentylcarbamate]",6.00 to 7.00
10,"CCCC[C@H](NC(=O)OCC1(CSc2nccn2C)CCC1)C(=O)C(=O)N[C@H](C)c1ccccc1 [Example 19, (1-{[(1-methyl-1H-imidazol-2-yl)sulfanyl]methyl}cyclobutyl)methyl (1S)-1-(oxo{[(1R)-1-phenylethyl]amino}acetyl)pentylcarbamate]",7.00 to 8.00
11,"CCCC[C@H](NC(=O)OCC1(COc2ccnc(N3CCN(C)CC3)n2)CCC1)C(=O)C(=O)N[C@H](C)c1ccccc1 [Example 21, [1-({[2-(4-methyl-1-piperazinyl)-4-pyrimidinyl]oxy}methyl)cyclobutyl]methyl (1S)-1-(oxo{[(1R)-1-phenylethyl]amino}acetyl)pentylcarbamate]",7.00 to 8.00
12,"CCCC[C@H](NC(=O)OCC1(COc2nc(-c3ccc(C)cc3)cs2)CCC1)C(=O)C(=O)N[C@H](C)c1ccccc1 [Example 31, [1-({[4-(4-methylphenyl)-1,3-thiazol-2-yl]oxy}methyl)cyclobutyl]methyl (1S)-1-(oxo{[(1R)-1-phenylethyl]amino}acetyl)pentylcarbamate]",6.00 to 7.00
13,"CCCC[C@H](NC(=O)OCC1(Cc2ccc(F)cc2)CCC1)C(=O)C(=O)Nc1ccn[nH]1 [Example 14, [1-(4-Fluorobenzyl)cyclobutyl]methyl(1S)-1-[oxo(1H-pyrazol-5-ylamino)acetyl]pentylcarbamate]",> 9.00
14,"CCCC[C@H](NC(=O)OCC1(CSc2ncc(-c3ccc(Cl)cc3)n2C)CCC1)C(=O)C(=O)N[C@H](C)c1ccccc1 [Example 34, [1-({[5-(4-chlorophenyl)-1-methyl-1H-imidazol-2-yl]sulfanyl}methyl)cyclobutyl]methyl (1S)-1-(oxo{[(1R)-1-phenylethyl]amino}acetyl)pentylcarbamate]",6.00 to 7.00
15,"CCCC[C@H](NC(=O)OCC1(COc2nccs2)CCC1)C(=O)C(=O)N[C@H](C)c1ccccc1 [Example 25, {1-[(1,3-thiazol-2-yloxy)methyl]cyclobutyl}methyl (1S)-1-(oxo{[(1R)-1-phenylethyl]amino}acetyl)pentylcarbamate]",7.00 to 8.00
16,"C[C@@H](NC(=O)C(=O)[C@H](CCCCNC(=O)N1CCOCC1)NC(=O)OCC1(Cc2ccc(F)cc2)CCC1)c1ccccc1 [Example 10, [1-(4-Fluorobenzyl)cyclobutyl]methyl(1S)-5-[(4-morpholinylcarbonyl)amino]-1-(oxo{[(1R)-1-phenylethyl]amino}acetyl)pentylcarbamate]",7.00 to 8.00
17,"CCCC[C@H](NC(=O)OCC1(COc2ncnc3ccsc23)CCC1)C(=O)C(=O)N[C@H](C)c1ccccc1 [Example 29, {1-[(thieno[3,2-d]pyrimidin-4-yloxy)methyl]cyclobutyl}methyl (1S)-1-(oxo{[(1R)-1-phenylethyl]amino}acetyl)pentylcarbamate]",7.00 to 8.00
18,"CCCC[C@H](NC(=O)OCC1(CCCSc2nccn2C)CCC1)C(=O)C(=O)N[C@H](C)c1ccccc1 [Example 37, (1-{3-[(1-methyl-1H-imidazol-2-yl)sulfanyl]propyl}cyclobutyl)methyl (1S)-1-(oxo{[(1R)-1-phenylethyl]amino}acetyl)pentylcarbamate]",< 6.00
19,"CCCC[C@H](NC(=O)OCC1(COc2ccnc(N3CCOCC3)n2)CCC1)C(=O)C(=O)N[C@H](C)c1ccccc1 [Example 22, [1-({[2-(4-morpholinyl)-4-pyrimidinyl]oxy}methyl)cyclobutyl]methyl (1S)-1-(oxo{[(1R)-1-phenylethyl]amino}acetyl)pentylcarbamate]",7.00 to 8.00
20,"CCCC[C@H](NC(=O)OCC1(CSc2nccn2-c2ccccc2)CCC1)C(=O)C(=O)N[C@H](C)c1ccccc1 [Example 28, (1-{[(1-phenyl-1H-imidazol-2-yl)sulfanyl]methyl}cyclobutyl)methyl (1S)-1-(oxo{[(1R)-1-phenylethyl]amino}acetyl)pentylcarbamate]",7.00 to 8.00
21,"CCCCC(NC(=O)OCC1(COc2nnc(C)cc2-c2ccccc2)CCC1)C(=O)C(=O)N[C@H](C)c1ccccc1 (stereo in doubt) [Example 32, (1-{[(6-methyl-4-phenylpyridazin-3-yl)oxy]methyl}cyclobutyl)methyl (1R)-1-(oxo{[(1R)-1-phenylethyl]amino}acetyl)pentylcarbamate]",7.00 to 8.00
22,"CCCC[C@H](NC(=O)OCC1(COc2nc(-c3ccccc3)ns2)CCC1)C(=O)C(=O)N[C@H](C)c1ccccc1 [Example 26, (1-{[(3-phenyl-1,2,4-thiadiazol-5-yl)oxy]methyl}cyclobutyl)methyl (1S)-1-(oxo{[(1R)-1-phenylethyl]amino}acetyl)pentylcarbamate]",7.00 to 8.00
